Experimental data reported in patent publication US9243254B2, “Method for transforming a bacterium belonging to the streptococcus genus by natural competence” (priority 2009, dated 2016).

Tests used:
S. thermophilus LMG18311 = experiment: Natural transformation in CDM upon addition of synthetic peptide; assay type: cell-based, Streptococcus thermophilus
S. thermophilus CNRZ1066 = experiment: as above; assay type: cell-based, Streptococcus thermophilus
Description: Similarly to the protocol used in example 4, strains LMD-9, LMG18311, CNRZ1066 and JIM8777 were pre-cultivated in M17-lactose medium. The cells of the precultures were harvested (5000 g, 9 minutes, 20° C.) and washed twice in CDM and then resuspended in CDM. The washed cells were diluted in fresh CDM medium to obtain an optical density of 0.05, and then incubated at 37° C. After 1.5 h of incubation, in one set of experiment, 1 μM of one of the tested synthetic peptides and 1 μg/mL of pGIUD0855ery DNA (in case of S. thermophilus strains), or 1 μg/ml of pG+host09 DNA (in case of S. salivarius strains) were added to the culture, whereas 1 μg/mL of DNA but no synthetic peptide was added to the second set of experiment. The cultures were grown during 6 hours and serial dilutions were plated on the surface of M17-lactose agar medium containing 2.5 μg/mL of erythromycin to measure transformation efficiency. Transformed S. thermophilus and S. salivarius cells are selected at 37° C. and 29° C., respectively.
Similarly to the protocol used in example 4, various S. thermophilus strains, including LMD-9, CNRZ1066 and LMG18311 used as controls, were pre-cultivated in M17-lactose medium. The cells of the precultures were harvested (5000 g, 9 minutes, 20° C.) and washed twice in CDM and then resuspended in CDM. The washed cells were diluted in fresh CDM medium to obtain an optical density of 0.05, and then incubated at 37° C. After 1.5 h of incubation, in one set of experiment, 1 μM of one of the tested synthetic peptides (LPYFAGCL) (SEQ ID NO: 85) and 1 μg/mL of pGIUD0855cat DNA were added to the culture, whereas 1 μg/mL of DNA but no synthetic peptide was added to the second set of experiment. Plasmid pGIUD0855cat is a pUC18-derivative containing a chloramphenicol resistance cassette flanked by 1-kb fragments corresponding to the upstream and downstream regions of stu0855. Upon transformation, it promotes the genetic replacement of stu0855 by P32-cat through homologous recombination (FIG. 7). The cultures were grown during 6 hours and serial dilutions were plated on the surface of M17-lactose agar medium containing 5 μg/mL of chloramphenicol to measure transformation efficiency. Transformed S. thermophilus cells were selected at 37° C.; when transformants were obtained, the transformation efficiency was calculated and is given in Table 9.
Day 2: • Centrifuge Day 1—culture (centrifugation parameters: 5000 g, 9 minutes, 15° C.) and perform two washing steps with one volume (10 mL) of CDM (centrifugation parameters: 5000 g, 9 minutes, 15° C.). • Dilute the culture in 10 mL CDM to obtain an OD600nm of 0.05. • A small volume of S. thermophilus cultures (300 μL) is then transferred in white microplate with a transparent bottom (655095; Greiner, Alphen aid Rijn, The Netherlands) and is grown at 37° C. Luminescence at 595 nm and optical density at 600 nm are recorded with the automatic Synergy HT multi-mode microplate reader. The luciferase activity catalysed by LuxAB requires the presence of nonanal as substrate. In this experimental set-up, nonanal (Acros Organics ref. 204-688-5) is supplied to the cultures by placing 50 μL of a solution containing 1% nonanal diluted in mineral oil in the spaces between the wells of a covered microplate (11). […] The luminescence and absorbance are scanned every 10 minutes during 6 hours. • To perform a competence experiment, 1 μg of donor DNA is added in the 300 μL samples in the beginning of incubation. […]

[1] = 1 μM LPYFAGCL, 1 μg/mL pUC18_stu0855::P32cat, chloramphenicol selection
[2] = 1 μM PYFAGCL, 1 μg/mL pGIUD0855ery

| Substance | Transformation rate, With peptide addition (S. thermophilus LMG18311; [1]) | Calculated efficiency of transformation (S. thermophilus LMG18311; LPYFAGCL-induced competence, forty six μg of LMD-9 genomic DNA, selection on CDM agar deprived of histidine) [µg⁻¹] | Transformation rate, With peptide addition (S. thermophilus CNRZ1066; [1]) | Transformation rate, With peptide addition (S. thermophilus LMG18311; [2]) | Increase of efficiency of transformation upon peptide addition (S. thermophilus LMG18311; 1 μM peptide in CDM versus no peptide) [fold] | Transformation rate, With peptide addition (S. thermophilus CNRZ1066; [2]) | Complementation of the transformation defect in CDM (S. thermophilus CNRZ1066; 1 μM peptide, result in words) |
| --- | --- | --- | --- | --- | --- | --- | --- |
| LPYFAGCL (fragment) [synthetic peptide corresponding to a C-terminal fragment of Shp316] | 1.3 × 10^−1 | 0.00016 | 3 × 10^−2 | – | – | – | – |
| PYFAGCL (fragment) | – | – | – | 3.17 × 10^−4 | 1000 | 3.69 × 10^−4 | complements the transformation defect |
